Entries after “also recorded” stand apart in the source; their conditions may differ. Each block holds one molecule with its values, some of them ahead of it.
Key:
Rorγt = biological target: T1, Rorγt (Mus musculus, UniProt P51450); experiment: Dual luciferase reporter assay in EL4 cells stably transfected with Rorγt vector; format: cell-based; set-up: expressed in transfected cells; host or cells: EL4 cells, stably transfected; conditions: EL4 cells with Rorγt and CD5L vector; 5, 0.5, 0.05 μM titration
T1 sequence (P51450 1-495 isoform P51450-2): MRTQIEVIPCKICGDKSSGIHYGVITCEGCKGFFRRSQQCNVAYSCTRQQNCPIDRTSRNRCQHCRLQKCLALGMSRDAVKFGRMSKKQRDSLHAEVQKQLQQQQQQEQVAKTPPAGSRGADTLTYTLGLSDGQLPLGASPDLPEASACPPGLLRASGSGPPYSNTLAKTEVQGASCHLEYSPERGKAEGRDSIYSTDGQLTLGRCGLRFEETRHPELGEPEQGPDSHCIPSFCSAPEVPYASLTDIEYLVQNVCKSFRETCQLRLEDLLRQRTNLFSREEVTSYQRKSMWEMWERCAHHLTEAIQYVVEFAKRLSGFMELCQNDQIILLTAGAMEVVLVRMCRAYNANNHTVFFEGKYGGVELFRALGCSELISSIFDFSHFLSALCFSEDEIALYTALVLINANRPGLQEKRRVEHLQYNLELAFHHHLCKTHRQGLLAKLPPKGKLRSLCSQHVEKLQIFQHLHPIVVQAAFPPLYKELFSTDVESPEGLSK
Protocol: Lipidome analysis of Th17 cells. (A) WT and CD5L^−/− naïve T cells were differentiated as in FIG. 46B in the presence of cytokines as indicated. Cells and supernatant were harvested at 96 hours and subjected to MS/LC. Three independent mouse experiments were performed. […] (B) Expression of representative metabolites including a cholesterol ester and a PUFA-containing TAG species. FIG. 48 C, D, E, F-J show as follows: (C) Metabolomic analysis of independent mouse experiments where T cells were differentiated under various cytokine conditions as indicated and harvested at 48 h and 96 h. (D,E) Rorγt ChIP from Th17 cells differentiated as described in A. under various conditions as indicated. F-K. Dual luciferase reporter assay was performed in EL4 cells stably transfected with a control vector or Rorγt vector. (F, G) CD5L retroviral vector was cotransfected in F and G at 0, 25, 50 and 100 ng/well. […] All ChIP and luciferase assay are representative of at least 3 independent experiments.

Th17 cells [1] = experiment: FACS of IL-17 and IL-23R.GFP in Th17 cells treated with free fatty acids; format: cell-based, mouse; conditions: 10 uM arachidonic acid or 20 uM palmitic acid, 48 h, FACS
Protocol: (§1) (A) Naïve T cells were sorted from either WT or IL-23RGFP reporter mice, activated with plate-bound anti-CD3/anti-CD28 and differentiated with TGFβ1+IL-6 for 48 hours. […] (B) Cells from WT and Rorc^−/− mice were sorted, differentiated and treated with FFA as in A. Cells were harvested for RNA purification and qPCR. (C) Naïve WT and CD5L^−/− T cells were differentiated as in A. Cells were then lifted, washed and replated in fresh media with no addition of cytokines and in the presence of control or 5 uM of arachidonic acid (PUFA). Cytokine profile of T cells were measured after PMA/ionomycin restimulation. […] Another 48 hours later, cells were harvested for nanostring analysis (D) or qPCR (E).

Th17 cells [2] = experiment: qPCR and Nanostring signature analysis of Th17 cells treated with free fatty acids; format: cell-based, mouse
Protocol: as §1
Next, the contribution of lipid saturation to Th17 cell pathogenicity was studied.

PROCR [3] = biological target: T2, PROCR (Mus musculus, UniProt Q64695); experiment: Intracellular IFN-γ/IL-17 staining and IL-17 ELISA of Th17 cells differentiated with activated protein C; format: cell-based; conditions: aPC 300 nM; flow cytometry day 3, ELISA day 3 and 5
T2 construct: endogenous in cells; host or cells: primary naïve CD4+ T cells polarised to Th17 (TGF-β1 + IL-6)
T2 sequence (Q64695 18-242): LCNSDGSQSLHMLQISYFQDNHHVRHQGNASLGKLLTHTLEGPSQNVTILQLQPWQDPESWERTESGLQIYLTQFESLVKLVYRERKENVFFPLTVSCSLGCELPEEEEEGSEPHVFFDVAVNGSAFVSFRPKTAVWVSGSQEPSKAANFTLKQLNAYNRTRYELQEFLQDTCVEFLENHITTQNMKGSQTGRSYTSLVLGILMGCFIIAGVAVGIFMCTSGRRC
Protocol: FIG. 20A depicts how naïve CD4+ T cells were differentiated into Th17 cells by anti-CD3/anti-CD28 stimulation in the presence of activated protein C (aPC, 300 nM), the ligand of PROCR. On day 3, cells were stimulated with PMA and Ionomycin for 4 hr, stained intracellularly for IFN-γ and IL-17 and analyzed by flow cytometry. FIG. 20B depicts IL-17 production from Th17 cells (TGF-β+IL-6) differentiated with or without activated protein C (aPC and Ctl, respectively) was assessed by ELISA on Day 3 and 5. FIG. 20C depicts how naïve CD4+ T cells were polarized under Th17 conditions (TGF-β+IL-6), transduced with either GFP control retrovirus (Ctl RV) or PROCR-expressing retrovirus (PROCR RV). Intracellular expression of IFN-γ and IL-17 in GFP+ cells were assessed by flow cytometry. FIG. 20D depicts how naïve CD4+ T cells from EPCR δ/δ mice and control mice were polarized under Th17 conditions with TGF-β1 and IL-6. Intracellular expression of IFN-γ and IL-17 were assessed by flow cytometry.

EAE = EAE (experimental autoimmune encephalomyelitis) clinical scoring; format: in vivo, mouse; conditions: schematic of PROCR regulation (FIG. 26D)
Description: FIGS. 26A-26D are a series of graphs and illustrations depicting that PROCR deficiency exacerbates EAE severity. FIG. 26A depicts frequency of CD4+ T cells expressing IL-17 and PROCR isolated from EAE mice 21d after immunization with MOG35-55. FIG. 26B depicts how EAE was induced by adoptive transfer of MOG35-55-specific 2D2 cells transduced with a control retrovirus (Ctl_GFP) or a PROCR-expression retrovirus (PROCR_RV) and differentiated into Th17 cells. Mean clinical scores and summaries for each group are shown. Results are representative of one of two experiments. FIG. 26C depicts how Rag1−/− mice were reconstituted with either PROCR-deficient (EPCR δ/δ→Rag1−/−) or WT T cells (WT→Rag1−/−) and immunized with MOG35-55 to induce EAE. The mean clinical score of each group is shown. Results are representative of one of two experiments. FIG. 26D depicts a schematic representation of PROCR regulation. Rorγt, IRF4, and STAT3 induce PROCR expression.
CyTOF and flow cytometry: Active induction of EAE and disease analysis: For active induction of EAE, mice were immunized by subcutaneous injection of 100 μg MOG (35-55) ([…]) (SEQ ID NO: 1395) in CFA, then received 200 ng pertussis toxin intraperitoneally (List Biological Laboratory) on days 0 and 2. […]

PROCR [4] = biological target: T2, PROCR; experiment: qRT-PCR of pathogenic/non-pathogenic signature genes in Th17 cells differentiated in the presence of activated protein C; format: cell-based
Description: FIG. 23A depicts quantitative RT-PCR analysis of mRNA expression of several pathogenic signature genes in Th17 cells differentiated with TGFβ1 and IL-6 in the presence of activated protein C (aPC) for 3 days in vitro. FIG. 23B depicts quantitative RT-PCR analysis of mRNA expression of several pathogenic signature genes in naïve CD4^+ T cells polarized under Th17 conditions, transduced with either GFP control retrovirus (Control RV) or PROCR-expressing retrovirus (PROCR RV) for 3 days. FIG. 23C depicts quantitative RT-PCR analysis of mRNA expression of several pathogenic signature genes in Th17 cells from EPCR δ/δ mice and control mice differentiated with TGFβ1 and IL-6 for 3 days in vitro.
FIGS. 32A-32D are a series of graphs depicting how PROCR and PD-1 expression affects Th17 pathogenicity. FIG. 32A depicts signature genes of pathogenic and non-pathogenic Th17 cells. Naïve CD4+ T cells were differentiated into non-pathogenic (TGFβ1+IL-6) or pathogenic (TGFβ3+IL-6 or IL-β1+IL-6) Th17 cells and PROCR expression was determined by quantitative PCR. FIG. 32B depicts how naïve WT or PROCRd/d CD4+ T cells were stimulated under Th17 polarizing conditions (TGFβ1+IL-6) in the presence or absence of aPC. Quantitative expression of three pathogenic signature genes was determined on day 3. […] Mice were monitored for EAE. […] Mice were monitored for EAE.

Molecule: CC(CO)CCC[C@@H](C)[C@H]1CC[C@H]2[C@@H]3C(O)C=C4C[C@@H](O)CC[C@]4(C)[C@H]3CC[C@]12C (stereo partly shown) [7, 27 dihydroxycholesterol, 7, 27-dihydroxycholesterol]
Il17 reporter transcription under CD5L-driven suppression (Rorγt): rescued the CD5L-driven suppression

Molecule: CCCCCCCCCCCCCCCC(=O)O [SFA, palmitic acid]
percentage of IL-23R.GFP+ CD4 T cells (Th17 cells [1]; IL-23RGFP reporter Th17 (TGFβ1+IL-6) expanded with IL-23): increased the expression of both IL-17 and IL-23R expression, but this effect was not significant
percentage of IL-17+ CD4 T cells (Th17 cells [1]; WT Th17 (TGFβ1+IL-6) expanded with IL-23): increased the expression of both IL-17 and IL-23R expression, but this effect was not significant
316 gene signature of Th17 cell differentiation and function (Th17 cells [2]; WT Th17 cells (TGFβ1+IL-6), 25 uM palmitic acid, Nanostring nCounter): more similar to CD5L^−/− Th17 cells
Il22 expression (Th17 cells [2]; qPCR): increased
expression of key pathogenicity signature genes Il10, Il23r, Ccl5, Csf2 and Lag3 (Th17 cells [2]; qPCR): reciprocally regulated

cytokine production (IFN-γ, IL-17) from Th17 cells (PROCR [3]): not essential for cytokine production
B1: activated protein C: the ligand of PROCR (protein, UniProt P04070 200-461, looked up)
Vitamin K-dependent protein C …: DTEDQEDQVDPRLIDGKMTRRGDSPWQVVLLDSKKKLACGAVLIHPSWVLTAAHCMDESKKLLVRLGEYDLRRWEKWELDLDIKEVFVHPNYSKSTTDNDIALLHLAQPATLSQTIVPICLPDSGLAERELNQAGQETLVTGWGYHSSREKEAKRNRTFVLNFIKIPVVPHNECSEVMSNMVSENMLCAGILGDRQDACEGDSGGPMVASFHGTWFLVGLVSWGEGCGLLHNYGVYTKVSRYLDWIHGHIRDKEAPQKSWAP
modifications: Vitamin K-dependent protein C heavy chain activated two-chain form
notes: the ligand of PROCR
pathogenicity in EAE (EAE): reduced pathogenicity
mRNA expression of pathogenic signature genes in Th17 cells (PROCR [4]; Th17 cells differentiated with TGFβ1 and IL-6 in the presence of aPC for 3 days, quantitative RT-PCR): impairs some pathogenic signature genes; also recorded: downregulation of the pathogenic signature genes IL-3, CXCL3, CCL4 and Pdp; also recorded: decreased the expression of some of the genes
expression of non-pathogenic signature genes in Th17 cells (PROCR [4]; Th17 polarizing conditions (TGFβ1+IL-6) with aPC, day 3): induces some non-pathogenic signature genes
